Assay results as given in ChEMBL document CHEMBL5029164, “JNJ-67569762, A 2-Aminotetrahydropyridine-Based Selective BACE1 Inhibitor Targeting the S3 Pocket: From Discovery to Clinical Candidate” (J Med Chem, 2021).
Active and inactive are the calls of the source. The calls are words filed in the database; no cut-off is given here.

Legend:
Beta-secretase 2 = target: T1, Beta-secretase 2 (Homo sapiens, UniProt Q9Y5Z0); test: Inhibition of BACE2 (unknown origin) using APP harboring Swedish Lys-Met/Asn-Leu mutant-derived peptide as substrate incubated for 2 hrs by FRET assay
T1 sequence (Q9Y5Z0 whole entry): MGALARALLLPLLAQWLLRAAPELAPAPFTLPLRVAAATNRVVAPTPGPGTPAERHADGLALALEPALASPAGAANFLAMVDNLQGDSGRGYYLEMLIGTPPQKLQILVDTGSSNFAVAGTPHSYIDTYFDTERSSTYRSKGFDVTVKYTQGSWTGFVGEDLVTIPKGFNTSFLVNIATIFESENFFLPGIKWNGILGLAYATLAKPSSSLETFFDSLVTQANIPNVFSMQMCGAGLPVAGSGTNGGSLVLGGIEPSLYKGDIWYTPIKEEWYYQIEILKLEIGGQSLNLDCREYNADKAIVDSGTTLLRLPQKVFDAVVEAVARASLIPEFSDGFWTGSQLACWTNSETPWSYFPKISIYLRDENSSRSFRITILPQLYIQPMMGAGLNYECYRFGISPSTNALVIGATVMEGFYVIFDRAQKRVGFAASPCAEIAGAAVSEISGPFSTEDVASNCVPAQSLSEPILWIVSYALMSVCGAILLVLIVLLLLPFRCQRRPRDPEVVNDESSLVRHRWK

Homo sapiens = species: Homo sapiens; test: Selectivity index, ratio of IC50 for inhibition of BACE2 (unknown origin) to IC50 for inhibition of BACE1 (1 to 454 residues) (unknown origin)
[1] = Metabolic stability in human liver microsomes assessed as intrinsic clearance; format: ADME, Microsome; settings: read-out: CLH
Beta-secretase 1 [2] = target: T2, Beta-secretase 1 (Homo sapiens, UniProt P56817); test: Inhibition of BACE1 (1 to 454 residues) (unknown origin) using APP harboring Swedish Lys-Met/Asn-Leu mutant-derived peptide as substrate by FRET assay
Beta-secretase 1 [3] = target: T2, Beta-secretase 1; test: Inhibition of BACE1 in human […] cells expressing wild type APP695 assessed as reduction in amyloid beta 42 secretion incubated for 18 hrs by sandwich ELISA; format: cell-based, SKNBE2
[4] = Glutathione reactivity in human liver microsomes; format: ADME
[5] = Cyanide reactivity in human liver microsomes; format: ADME
Mus musculus = test: In vivo inhibition of BACE1 in C57BL/6J mouse assessed as reduction in plasma SEZ6L level at 3.5 to 52 mg/kg,/day administered via diet for 21 days; format: functional, organism-based; settings: dose 3.5-52 mg/kg, time 21.0 day

T2 sequence (P56817 whole entry, the tested form may be a part): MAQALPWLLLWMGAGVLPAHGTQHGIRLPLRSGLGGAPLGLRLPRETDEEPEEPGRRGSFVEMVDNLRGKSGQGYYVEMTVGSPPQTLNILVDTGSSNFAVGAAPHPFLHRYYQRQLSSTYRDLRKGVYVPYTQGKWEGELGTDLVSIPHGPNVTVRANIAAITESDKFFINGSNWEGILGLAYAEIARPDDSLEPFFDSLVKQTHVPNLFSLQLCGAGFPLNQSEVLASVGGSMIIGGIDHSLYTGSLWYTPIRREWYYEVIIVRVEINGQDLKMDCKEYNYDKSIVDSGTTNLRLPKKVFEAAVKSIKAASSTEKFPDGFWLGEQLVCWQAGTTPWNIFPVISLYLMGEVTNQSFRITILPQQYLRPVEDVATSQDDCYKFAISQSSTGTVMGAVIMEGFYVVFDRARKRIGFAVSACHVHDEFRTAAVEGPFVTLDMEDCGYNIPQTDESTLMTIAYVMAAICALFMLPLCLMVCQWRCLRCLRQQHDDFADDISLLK

Row | IC50 (Beta-secretase 2) [nM] | microsomal CLint [1] [µL/min/mg] | IC50 (Beta-secretase 1 [2]) [nM] | IC50 (Beta-secretase 1 [3]) [nM] | Compound | Ratio IC50 (Homo sapiens) | Activity [4] | Activity [5] | Ratio IC50 (Homo sapiens; tested as the 2H-labelled form) | inhibition (Mus musculus)
1 | 1150 | 16.7 | 28 | 76 | C[C@@]1(S(C)(=O)=O)CC[C@@](CF)(c2cc(NC(=O)c3cc4c(cn3)OCCCO4)ccc2F)N=C1N | 41 | – | – | – | –
2 | 3.1 | < 7.7 | – | 3.3 | C[C@@]1(S(C)(=O)=O)CC[C@@](CF)(c2cc(NC(=O)c3ccc(F)cn3)ccc2F)N=C1N | – | – | – | – | –
3 | 47 | 36.4 | 2.3 | 11 | C[C@@]1(S(C)(=O)=O)CC[C@@](CF)(c2cc(NC(=O)c3cc4c(cn3)OCO4)ccc2F)N=C1N | – | – | – | – | –
4 | 468 | < 7.7 | 10 | 6.8 | CC(C)S(=O)(=O)[C@]1(C)CC[C@@](CF)(c2cc(NC(=O)c3cc4c(cn3)OC(F)(F)O4)ccc2F)N=C1N | 46 | – | – | – | –
5 | 189 | < 7.7 | 9.5 | 15 | COc1cc(C(=O)Nc2ccc(F)c([C@]3(CF)CC[C@@](C)(S(C)(=O)=O)C(N)=N3)c2)ncn1 | 19 | – | – | – | –
6 | 16 | – | 2 | 2.3 | C[C@@]1(S(C)(=O)=O)CC[C@@](CF)(c2cc(NC(=O)c3cnc(OCF)cn3)ccc2F)N=C1N | – | – | – | – | –
7 | 6700 | – | 10 | – | CCc1cc([C@]2(c3ccc(F)c(-c4cccnc4C(F)F)c3)N=C(N)N(C)C2=O)cc(CC)n1 | – | – | – | – | –

More lines, now with the values behind:

Row | Compound | IC50 (Beta-secretase 2) [nM] | microsomal CLint [1] [µL/min/mg] | IC50 (Beta-secretase 1 [2]) [nM] | IC50 (Beta-secretase 1 [3]) [nM] | Ratio IC50 (Homo sapiens) | Activity [4] | Activity [5] | Ratio IC50 (Homo sapiens; tested as the 2H-labelled form) | inhibition (Mus musculus)
8 | C[C@@]1(S(C)(=O)=O)CC[C@@](CF)(c2cc(NC(=O)c3cc4c(cn3)OC(F)(F)O4)ccc2F)N=C1N | – | < 7.7 | – | – | 38 | Not Active | Active | – | –
9 | C[C@@]1(S(C)(=O)=O)CC[C@@](CF)(c2cc(NC(=O)c3cc4c(cn3)OC(F)(F)CO4)ccc2F)N=C1N | – | < 7.7 | 1.4 | – | 48 | Not Active | Active | – | –
10 | C[C@@]1(S(C)(=O)=O)CC[C@@](CF)(c2cc(NC(=O)c3cc4c(cn3)OCCO4)ccc2F)N=C1N | 340 | 11.3 | 2.3 | 3 | 145 | Not Active | Active | 102 | –
11 | C[C@@]1(c2cc(NC(=O)c3ccc(C#N)cn3)ccc2F)C[C@@H](C(F)(F)F)OC(N)=N1 | – | – | – | – | – | – | – | – | Active
12 | [2H]C1([2H])Oc2cnc(C(=O)Nc3ccc(F)c([C@]4(CF)CC[C@@](C)(S(C)(=O)=O)C(N)=N4)c3)cc2OC1([2H])[2H] | – | 7.9 | – | – | – | Not Active | Active | – | –
